Source: patent publication US9783532B2, “Molecules having certain pesticidal utilities, and intermediates, compositions, and processes related thereto” (Dow AgroSciences LLC, priority 2013, dated 2017)

Legend:
Type in all cases: in vivo
[1] = test system: Yellow Fever Mosquito "YFM" (Aedes aegypti); conditions: for YFM % Control (or Mortality) rating: about 1 day-old larvae, 96-well plate, room temperature, 3 days; for YFM (Biological Results, Insect species): Table ABC (FB), activity rating class
How it was run: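 About 1 day-old Aedes aegypti larvae in liver-powder water added to wells holding compound diluted from 4000 ppm DMSO stock with 90:10 water:acetone, 6 replicate plates. Plates kept covered at room temperature for 3 days. Wells scored for mortality and reported as rating categories.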

[2] = test system: Beet Armyworm (Spodoptera exigua) ("BAW"); test: Bioassay on beet armyworm (BAW), 128-well diet tray assay; conditions: for mortality at 50 µg/cm2: 168 h, 50 μg/cm^2 on artificial diet, second instar BAW larvae, 25° C., five to seven days, average of eight wells, read-out: BAW % Control (or Mortality) rating; for pest or weed control at 50 µg/cm2: Table ABC (FB), activity rating class, read-out: BAW (Biological Results, Insect species)
How it was run: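 Percent mortality, averaged across eight wells, was read after five to seven days at 25° C. under 14:10 light-dark. Each well held one to five second-instar larvae on artificial diet that had been treated with 50 μg/cm^2 compound in 90:10 acetone-water and dried.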

[3] = test system: Green Peach Aphid ("GPA") (Myzus persicae); test: Bioassay on green peach aphid (GPA), foliar spray on cabbage seedlings; conditions: for mortality at 200 ppm: Myzus persicae, foliar, 72 h, 200 ppm spray on infested cabbage seedlings, three days, Abbott corrected % control, read-out: GPA % Control (or Mortality) rating; for GPA (Biological Results, Insect species): Table ABC (FB), activity rating class
Method: Certain molecules disclosed in this document were tested against GPA using procedures described in the following example. In the reporting of the results, the “GPA Rating Table” was used (See Table Section).
Cabbage seedlings grown in 3-inch pots, with 2-3 small (3-5 cm) true leaves, were used as test substrate. The seedlings were infested with 20-50 GPA (wingless adult and nymph stages) one day prior to chemical application. Four pots with individual seedlings were used for each treatment. Test compounds (2 mg) were dissolved in 2 mL of acetone/methanol (1:1) solvent, forming stock solutions of 1000 ppm test compound. The stock solutions were diluted 5× with 0.025% Tween 20 in water to obtain the solution at 200 ppm test compound. A hand-held aspirator-type sprayer was used for spraying a solution to both sides of […] leaves until runoff. Reference plants (solvent check) were sprayed with the diluent only containing 20% by volume of acetone/methanol (1:1) solvent. Treated plants were held in a holding room for three days at approximately 25° C. and ambient relative humidity (RH) prior to grading. Evaluation was conducted by counting the number of live aphids per plant under a microscope. Percent Control was measured by using Abbott's correction formula (W. S. Abbott, “A Method of Computing the Effectiveness of an Insecticide” J. Econ. Entomol. 18 (1925), pp. 265-267) as follows. Corrected % Control=100*(X−Y)/X • where • X=No. of live aphids on solvent check plants and • Y=No. of live aphids on treated plants

[4] = test system: Cabbage Looper (Trichoplusia ni) ("CL"); test: Bioassay on cabbage looper (CL), 128-well diet tray assay; conditions: for mortality at 50 µg/cm2: 168 h, 50 μg/cm^2 on artificial diet, second instar CL larvae, 25° C., five to seven days, average of eight wells, read-out: CL % Control (or Mortality) rating; for pest or weed control at 50 µg/cm2: Table ABC (FB), activity rating class, read-out: CL (Biological Results, Insect species)
How it was run: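 Percent mortality, averaged across eight replicate wells, was read after five to seven days at 25 °C under a 14:10 photoperiod. Each well held one to five second-instar T. ni on diet carrying a dried 50 μg/cm^2 dose applied in acetone-water 90:10.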

In the case of `CC(C)c1ccccc1NC(=S)NC(=O)NCCc1ccc(-c2ncn(-c3ccc(OC(F)(F)F)cc3)n2)cc1` [F2, N-[2-isopropylphenyl]-N-[2-(4-{1-[4-(trifluoromethoxy)phenyl]-1H-1,2,4-triazol-3-yl}phenyl)ethyl]dicarbonimidothioic diamide], the “YFM % Control (or Mortality) rating” value [1] is reported as “A (80-100)”, the mortality at 50 µg/cm2 [2] is reported as 50 to 100% and the mortality at 200 ppm [3] is reported as 0 to 80%. For the same compound, the mortality at 50 µg/cm2 [4] was 50 to 100%.
For `Cc1ccc(C(C)C)c(N2C(=O)CS/C2=N\C(=O)NCCc2ccc(-c3ncn(-c4ccc(OC(F)(F)F)cc4)n3)cc2)c1` [F5, (Z)-1-(3-(2-isopropropyl-5-methylphenyl)-4-oxothiazolidin-2-ylidene)-3-(4-(1-(4-(trifluoromethoxy)phenyl)-1H-1,2,4-triazol-3-yl)phenethyl)urea], the “YFM % Control (or Mortality) rating” value [1] was “A (80-100)”, the mortality at 50 µg/cm2 [2] was 50 to 100% and the mortality at 200 ppm [3] was 80 to 100%. The mortality at 50 µg/cm2 [4] was 50 to 100%.
`COc1ccc(C(C)C)c(N2C(=O)CS/C2=N\C(=O)NCCc2ccc(-c3ncn(-c4ccc(OC(F)(F)F)cc4)n3)cc2)c1` [F6, (Z)-1-(3-(2-isopropyl-5-methoxyphenyl)-4-oxothiazolidin-2-ylidene)-3-(4-(1-(4-(trifluoromethoxy)phenyl)-1H-1,2,4-triazol-3-yl)phenethyl)urea] was tested, and the “YFM % Control (or Mortality) rating” value [1] was “A (80-100)”, the mortality at 50 µg/cm2 [2] was 50 to 100% and the mortality at 200 ppm [3] was 0 to 80%. For the same compound, the mortality at 50 µg/cm2 [4] was 50 to 100%.
`CC(Cc1ccc(-c2ncn(-c3ccc(OC(F)(F)F)cc3)n2)cc1)NC(=O)/N=C1\SCC(=O)N1c1ccccc1C(C)C` (stereo not drawn) [F7, (Z)-1-(3-(2-isopropylphenyl)-4-oxothiazolidin-2-ylidene)-3-(1-(4-(1-(4-(trifluoromethoxy)phenyl)-1H-1,2,4-triazol-3-yl)phenyl)propan-2-yl)urea] was tested, and the “YFM % Control (or Mortality) rating” value [1] was “A (80-100)”, the mortality at 50 µg/cm2 [2] was 50 to 100% and the mortality at 200 ppm [3] was 0 to 80%. It also gave a mortality at 50 µg/cm2 [4] of 50 to 100%.
With `Cc1ccc(C(C)C)c(N2C(=O)CS/C2=N\C(=O)NCCc2ccc(-c3ncn(-c4ccc(OC(F)(F)C(F)(F)F)cc4)n3)cc2)c1` [F9, (Z)-1-(3-(2-isopropyl-5-methylphenyl)-4-oxothiazolidin-2-ylidene)-3-(4-(1-(4-(perfluoroethoxy)phenyl)-1H-1,2,4-triazol-3-yl)phenethyl)urea] the “YFM % Control (or Mortality) rating” value [1] was “A (80-100)”, the mortality at 50 µg/cm2 [2] was 50 to 100% and the mortality at 200 ppm [3] was 0%. The mortality at 50 µg/cm2 [4] was 50 to 100%.
For `Cc1ccc(C(C)C)c(N2C(=O)CS/C2=N\C(=O)NCC(C)c2ccc(-c3ncn(-c4ccc(OC(F)(F)F)cc4)n3)cc2)c1` (stereo not drawn) [F10, (Z)-1-(3-(2-isopropyl-5-methylphenyl)-4-oxothiazolidin-2-ylidene)-3-(2-(4-(1-(4-(trifluoromethoxy)phenyl)-1H-1,2,4-triazol-3-yl)phenyl)propyl)urea], the “YFM % Control (or Mortality) rating” value [1] was “A (80-100)”, the mortality at 50 µg/cm2 [2] was 50 to 100% and the mortality at 200 ppm [3] was 0 to 80%. The mortality at 50 µg/cm2 [4] was 50 to 100%.
`CC(C)c1ccccc1NC(=S)NC(=O)NCc1ccc(-c2ncn(-c3ccc(OC(F)(F)F)cc3)n2)cc1` [F14, N-[2-(propan-2-yl)phenyl]-N′-(4-{1-[4-(trifluoromethoxy)phenyl]-1H-1,2,4-triazol-3-yl}benzyl)dicarbonimidothioic diamide] was tested, and the “YFM % Control (or Mortality) rating” value [1] was “A (80-100)”, the mortality at 50 µg/cm2 [2] was 50 to 100% and the mortality at 200 ppm [3] was 0%. The mortality at 50 µg/cm2 [4] was 50 to 100%.
For `Cc1ccc(C(C)C)c(NC(=S)NC(=O)NCCCc2ccc(-c3ncn(-c4ccc(OC(F)(F)F)cc4)n3)cc2)c1` [F21, 1-[(2-isopropyl-5-methyl-phenyl)carbamothioyl]-3-[3-[4-[1-[4-(trifluoromethoxy)phenyl]-1H-1,2,4-triazol-3-yl]phenyl]propyl]urea], the “YFM % Control (or Mortality) rating” value [1] was “A (80-100)”, the mortality at 50 µg/cm2 [2] was 50 to 100% and the mortality at 200 ppm [3] was 0%. The mortality at 50 µg/cm2 [4] was 50 to 100%.
For `CC(C)c1ccccc1N1C(=O)CS/C1=N\C(=O)NC1CC1c1ccc(-c2ncn(-c3ccc(OC(F)(F)F)cc3)n2)cc1` (stereo not drawn) [F29, (Z)-1-(3-(2-isopropylphenyl)-4-oxothiazolidin-2-ylidene)-3-(2-(4-(1-(4-(trifluoromethoxy)phenyl)-1H-1,2,4-triazol-3-yl)phenyl)cyclopropyl)urea], the “YFM % Control (or Mortality) rating” value [1] was “A (80-100)”, the mortality at 50 µg/cm2 [2] was 50 to 100% and the mortality at 200 ppm [3] was 0%. It also gave a mortality at 50 µg/cm2 [4] of 50 to 100%.
In the case of `Cc1ccc(C(C)C)c(N2CCS/C2=N\C(=O)NC2CC2c2ccc(-c3ncn(-c4ccc(OC(F)(F)F)cc4)n3)cc2)c1` (stereo not drawn) [F34, (Z)-1-(3-(2-isopropyl-5-methylphenyl)thiazolidin-2-ylidene)-3-(2-(4-(1-(4-(trifluoromethoxy)-phenyl)-1H-1,2,4-triazol-3-yl)phenyl)cyclopropyl)urea], the mortality at 50 µg/cm2 [2] is reported as 50 to 100%, the mortality at 200 ppm [3] is reported as 0% and the mortality at 50 µg/cm2 [4] is reported as 50 to 100%.
`CCC(Cc1ccc(-c2ncn(-c3ccc(OC(F)(F)F)cc3)n2)cc1)NC(=O)/N=C1\SCC(=O)N1c1cc(C)ccc1C(C)C` (stereo not drawn) [FB43, (Z)-1-(3-(2-isopropyl-5-methylphenyl)-4-oxothiazolidin-2-ylidene)-3-(1-(4-(1-(4-(trifluoromethoxy)phenyl)-1H-1,2,4-triazol-3-yl)phenyl)butan-2-yl)urea] was tested, and the “YFM (Biological Results, Insect species)” value [1] was “A (80-100)”, the pest or weed control at 50 µg/cm2 [2] was 50 to 100% and the “GPA (Biological Results, Insect species)” value [3] was “B (More than 0-Less than 80)”. For the same compound, the pest or weed control at 50 µg/cm2 [4] was 50 to 100%.
For `CCC(Cc1ccc(-c2ncn(-c3ccc(OC(F)(F)F)cc3)n2)cc1)NC(=O)/N=C1\SCC(=O)N1c1cc(Cl)ccc1C(C)C` (stereo not drawn) [FB44, (Z)-1-(3-(5-chloro-2-isopropylphenyl)-4-oxothiazolidin-2-ylidene)-3-(1-(4-(1-(4-(trifluoromethoxy)phenyl)-1H-1,2,4-triazol-3-yl)phenyl)butan-2-yl)urea], the “YFM (Biological Results, Insect species)” value [1] was “A (80-100)”, the pest or weed control at 50 µg/cm2 [2] was 50 to 100% and the “GPA (Biological Results, Insect species)” value [3] was “B (More than 0-Less than 80)”. For the same compound, the pest or weed control at 50 µg/cm2 [4] was 50 to 100%.
With `CC(C)c1cc(F)ccc1N1C(=O)CS/C1=N\C(=O)NCCc1ccc(-c2ncn(-c3ccc(OC(F)(F)F)cc3)n2)cc1` [P28, (Z)-1-(3-(4-fluoro-2-isopropylphenyl)-4-oxothiazolidin-2-ylidene)-3-(4-(1-(4-(trifluoromethoxy)phenyl)-1H-1,2,4-triazol-3-yl)phenethyl)urea] the “YFM % Control (or Mortality) rating” value [1] was “A (80-100)”, the mortality at 50 µg/cm2 [2] was 50 to 100% and the mortality at 200 ppm [3] was 0%. The mortality at 50 µg/cm2 [4] was 50 to 100%.
For `COc1ccc(N2C(=O)CS/C2=N\C(=O)NCCc2ccc(-c3ncn(-c4ccc(OC(F)(F)F)cc4)n3)cc2)c(C)c1` [P44, (Z)-1-(3-(4-methoxy-2-methylphenyl)-4-oxothiazolidin-2-ylidene)-3-(4-(1-(4-(trifluoromethoxy)phenyl)-1H-1,2,4-triazol-3-yl)phenethyl)urea], the “YFM % Control (or Mortality) rating” value [1] was “A (80-100)”, the mortality at 50 µg/cm2 [2] was 50 to 100% and the mortality at 200 ppm [3] was 0%. For the same compound, the mortality at 50 µg/cm2 [4] was 50 to 100%.
With `CC(C)c1cccc(N2C(=O)CS/C2=N\C(=O)NCCc2ccc(-c3ncn(-c4ccc(OC(F)(F)F)cc4)n3)cc2)c1` [P51, (Z)-1-(3-(3-isopropylphenyl)-4-oxothiazolidin-2-ylidene)-3-(4-(1-(4-(trifluoromethoxy)phenyl)-1H-1,2,4-triazol-3-yl)phenethyl)urea] the “YFM % Control (or Mortality) rating” value [1] was “A (80-100)”, the mortality at 50 µg/cm2 [2] was 50 to 100% and the mortality at 200 ppm [3] was 0 to 80%. For the same compound, the mortality at 50 µg/cm2 [4] was 50 to 100%.
For `Cc1ccc(C(C)C)c(N2C(=O)CS/C2=N\C(=O)NCCc2ccc(-c3ncn(-c4ccc(C(F)(F)F)cc4)n3)cc2)c1` [P52, (Z)-1-(3-(2-isopropyl-5-methylphenyl)-4-oxothiazolidin-2-ylidene)-3-(4-(1-(4-(trifluoromethyl)phenyl)-1H-1,2,4-triazol-3-yl)phenethyl)urea], the “YFM % Control (or Mortality) rating” value [1] was “A (80-100)”, the mortality at 50 µg/cm2 [2] was 50 to 100% and the mortality at 200 ppm [3] was 0%. For the same compound, the mortality at 50 µg/cm2 [4] was 50 to 100%.
